Some targets named below: Cytochrome P450 3A4 (Homo sapiens, UniProt P08684); Cytochrome P450 2C9 (Homo sapiens, UniProt P11712); Cytochrome P450 2D6 (Homo sapiens, UniProt P10635).
Another test has as its target Cytochrome P450 2C19 (Homo sapiens, UniProt P33261). The experiment in a line: Cytochrome panel assay with activity outcomes. Panel member name: p450-cyp2c19 Compounds with AC50 equal or less than 10 uM are considered active. Format: functional. To be noted: read-out: AC50.
Test [1] has as its target T1, Corticotropin-releasing factor receptor 2/Corticotropin-releasing factor-binding protein (Homo sapiens, UniProt P24387+Q13324).
T1 sequence (Q13324 whole entry): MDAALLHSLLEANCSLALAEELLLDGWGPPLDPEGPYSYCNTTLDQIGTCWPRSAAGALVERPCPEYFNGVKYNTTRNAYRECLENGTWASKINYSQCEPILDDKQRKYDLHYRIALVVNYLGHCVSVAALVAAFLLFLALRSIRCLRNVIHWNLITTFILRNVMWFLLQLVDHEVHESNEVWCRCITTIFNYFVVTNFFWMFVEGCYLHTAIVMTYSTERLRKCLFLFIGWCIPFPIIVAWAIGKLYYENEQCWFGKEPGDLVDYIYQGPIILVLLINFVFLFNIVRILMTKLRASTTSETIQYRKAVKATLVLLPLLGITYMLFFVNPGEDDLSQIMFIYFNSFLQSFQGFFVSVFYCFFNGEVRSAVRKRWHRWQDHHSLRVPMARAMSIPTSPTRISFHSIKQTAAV
T1 sequence (P24387 whole entry): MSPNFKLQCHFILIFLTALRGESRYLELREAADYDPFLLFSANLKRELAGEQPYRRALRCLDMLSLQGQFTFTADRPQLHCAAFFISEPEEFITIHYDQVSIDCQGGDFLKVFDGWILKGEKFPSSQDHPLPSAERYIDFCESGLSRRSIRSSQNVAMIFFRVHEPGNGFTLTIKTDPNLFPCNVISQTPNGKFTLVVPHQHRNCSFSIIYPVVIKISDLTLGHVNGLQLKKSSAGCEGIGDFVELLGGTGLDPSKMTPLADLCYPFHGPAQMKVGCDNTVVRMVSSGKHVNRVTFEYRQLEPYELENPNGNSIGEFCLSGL
The test is described as follows: activators of CRF receptor 2 with binding protein – uHTS hits, confirmation (AID 602473). It is filed as functional. The conditions noted are these: read-out: EC50_Mean.

For another test, the system named is INS1. The test is described as follows: beta cell apoptosis inhibitors, cytokine rescue, dose response, luminescence, retest (AID 449756).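 Further: cell death triggered by IL-1 beta plus TNF-alpha plus IFN-gamma mixture; protective hits raise ATP signal compared with cytokine alone wells.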 Format: functional, cell-based. The conditions noted are these: Rattus norvegicus.
Test [2] is described as follows: Luminescence Cell-Based Dose Response HTS to Identify Activators of Luciferase Translation or Activity in H4 […] Cells. [Related pubchem assays: 1829 (Project Summary), 1814 (Primary HTS)]. Format: functional.
The subject of the next test is H4. The test is described as follows: Luminescence Cell-Based Dose Response HTS to Identify Activators of 5'UTR Stem-Loop Driven Prion Protein mRNA Translation in H4 Neuroglioblastoma Cells. [Related pubchem assays: 1829 (Project Summary), 1814 (Primary HTS)]. Format: functional. To be noted: Homo sapiens.
Test [3] can be described thus: inhibitors of intracellular T. cruzi replication, confirmation, NIH3T3 host cells, beta-gal luminescence (AID 2044).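 Further: intracellular parasites grown in NIH/3T3 mouse fibroblasts as host cells; luminescent beta-galactosidase reporter signal from transgenic T. cruzi replicating inside host cells; inhibitors lower the luminescence signal.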 Format: functional, cell-based.
Test [4] is described as follows: cytotoxicity toward NIH3T3 fibroblasts, dose response, counter-screen, cell-based, ATP luminescence, mouse fibroblasts (AID 2010).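 Further: cells exposed to compound for about 90 hours before reading.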 It is filed as functional. For orientation: A counterscreen serves to expose hits that act by an unwanted route or on another target.
Test [5] can be described thus: NIH-3T3 fibroblast cytotoxicity, dose response, cytotoxicity control, cell-based, fluorescence, Alamar Blue, secondary assay (AID 2327).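 Further: NIH-3T3 mouse fibroblasts cultured with fluconazole at 8 µg/mL.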 It is filed as functional. Background: Resazurin is reduced to fluorescent resorufin, in cell work by metabolically active cells.
The next test has as its target T2, Cytochrome P450 1A2 (Homo sapiens, UniProt P05177).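 Further: PubChem cytochrome P450 panel assay, CYP1A2 panel member.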
T2 sequence (P05177 whole entry): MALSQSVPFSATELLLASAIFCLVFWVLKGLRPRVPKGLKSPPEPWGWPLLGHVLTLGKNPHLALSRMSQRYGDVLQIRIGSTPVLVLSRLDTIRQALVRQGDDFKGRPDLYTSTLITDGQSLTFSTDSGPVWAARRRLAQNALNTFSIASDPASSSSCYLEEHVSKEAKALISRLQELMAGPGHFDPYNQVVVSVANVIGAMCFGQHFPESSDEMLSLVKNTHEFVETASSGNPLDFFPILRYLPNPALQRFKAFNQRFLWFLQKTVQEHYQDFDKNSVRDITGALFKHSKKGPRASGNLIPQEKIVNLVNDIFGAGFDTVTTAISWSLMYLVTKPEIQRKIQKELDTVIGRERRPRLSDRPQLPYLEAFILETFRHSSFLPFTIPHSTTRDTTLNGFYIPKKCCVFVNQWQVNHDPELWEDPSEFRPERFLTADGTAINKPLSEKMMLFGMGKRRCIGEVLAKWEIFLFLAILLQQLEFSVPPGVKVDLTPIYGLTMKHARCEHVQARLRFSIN

Experimental findings from ChEMBL document CHEMBL1201862, “PubChem BioAssay data set” (2004) are described below.

Activity calls are given as the source filed them.

Sequence of Cytochrome P450 2D6 (P10635 whole entry): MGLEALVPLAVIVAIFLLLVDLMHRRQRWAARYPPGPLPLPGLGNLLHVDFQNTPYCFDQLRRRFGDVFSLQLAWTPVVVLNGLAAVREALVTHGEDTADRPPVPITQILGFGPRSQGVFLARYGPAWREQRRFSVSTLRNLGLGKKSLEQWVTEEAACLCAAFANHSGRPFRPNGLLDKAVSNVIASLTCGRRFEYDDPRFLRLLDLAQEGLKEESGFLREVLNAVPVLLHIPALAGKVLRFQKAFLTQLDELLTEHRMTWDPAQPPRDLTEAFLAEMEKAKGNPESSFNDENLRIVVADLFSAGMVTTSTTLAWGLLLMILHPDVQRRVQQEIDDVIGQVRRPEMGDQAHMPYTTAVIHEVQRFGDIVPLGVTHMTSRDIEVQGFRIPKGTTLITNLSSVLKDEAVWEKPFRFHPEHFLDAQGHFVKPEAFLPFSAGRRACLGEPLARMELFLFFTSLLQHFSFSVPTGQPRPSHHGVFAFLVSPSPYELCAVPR
Sequence of Cytochrome P450 3A4 (P08684 whole entry): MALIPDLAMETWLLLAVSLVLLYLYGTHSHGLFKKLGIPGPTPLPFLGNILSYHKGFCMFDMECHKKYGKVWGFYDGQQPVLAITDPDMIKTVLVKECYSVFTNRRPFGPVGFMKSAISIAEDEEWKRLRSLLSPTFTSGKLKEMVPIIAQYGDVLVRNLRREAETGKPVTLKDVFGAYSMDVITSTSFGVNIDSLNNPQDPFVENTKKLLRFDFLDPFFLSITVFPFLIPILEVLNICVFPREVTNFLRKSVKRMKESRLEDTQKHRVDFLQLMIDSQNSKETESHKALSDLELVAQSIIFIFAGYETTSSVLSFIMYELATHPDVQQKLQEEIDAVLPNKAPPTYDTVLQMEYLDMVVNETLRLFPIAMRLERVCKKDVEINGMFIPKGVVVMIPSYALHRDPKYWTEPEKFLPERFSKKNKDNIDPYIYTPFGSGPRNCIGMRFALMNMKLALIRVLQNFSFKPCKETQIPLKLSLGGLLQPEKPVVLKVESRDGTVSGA
Sequence of Cytochrome P450 2C9 (P11712 whole entry): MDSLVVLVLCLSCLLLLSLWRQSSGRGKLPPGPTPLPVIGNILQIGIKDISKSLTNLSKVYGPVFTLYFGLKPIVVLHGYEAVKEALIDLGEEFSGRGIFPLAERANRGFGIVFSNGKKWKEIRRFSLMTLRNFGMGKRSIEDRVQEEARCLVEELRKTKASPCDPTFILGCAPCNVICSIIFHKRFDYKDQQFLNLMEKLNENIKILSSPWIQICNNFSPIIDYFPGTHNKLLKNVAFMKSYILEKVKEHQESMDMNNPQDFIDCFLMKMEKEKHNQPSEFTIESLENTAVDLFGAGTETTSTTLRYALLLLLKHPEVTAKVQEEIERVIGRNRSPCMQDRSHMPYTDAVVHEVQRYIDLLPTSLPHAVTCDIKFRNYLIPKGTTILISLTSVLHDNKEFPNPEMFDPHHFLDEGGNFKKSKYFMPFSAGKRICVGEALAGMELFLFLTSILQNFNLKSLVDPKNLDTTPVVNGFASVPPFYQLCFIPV
Sequence of Cytochrome P450 2C19 (P33261 whole entry): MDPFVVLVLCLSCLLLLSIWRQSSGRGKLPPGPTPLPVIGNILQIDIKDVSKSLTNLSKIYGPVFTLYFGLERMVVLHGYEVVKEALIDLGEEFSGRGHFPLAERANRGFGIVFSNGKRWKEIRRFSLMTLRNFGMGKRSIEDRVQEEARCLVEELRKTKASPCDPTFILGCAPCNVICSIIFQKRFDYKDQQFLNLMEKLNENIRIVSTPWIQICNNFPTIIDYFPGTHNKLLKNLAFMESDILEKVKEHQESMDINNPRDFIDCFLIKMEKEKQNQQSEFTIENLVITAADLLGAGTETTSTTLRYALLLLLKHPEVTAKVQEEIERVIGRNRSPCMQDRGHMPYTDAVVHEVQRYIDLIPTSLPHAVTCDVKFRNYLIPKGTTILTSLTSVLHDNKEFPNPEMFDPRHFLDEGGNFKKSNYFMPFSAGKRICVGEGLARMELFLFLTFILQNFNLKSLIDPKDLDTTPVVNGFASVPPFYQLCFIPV

Turning to `CSc1nnc(-c2cc3c(-c4ccccc4)nn(C)c3s2)n1C`, the values for the AC50 on Cytochrome P450 2C19, at Cytochrome P450 3A4 and at Cytochrome P450 2C9 were 22.4 µM (inconclusive), 31.6 µM (inconclusive) and 3.55 µM (inconclusive), respectively.

As for `COCCCNC(=O)[C@H]1N2C(=O)c3ccccc3C2SC1(C)C` (stereo not given in full), the EC50 in [1] was > 53 µM (inactive). Regarding `CCOC(=O)c1sc(SC)c2c1CCC/C2=N/OC`, in the test on INS1, the AC50 is > 260 µM (inactive).

As to `Cn1c(=O)c(-c2ccccc2)nc2cnc(OCc3ccccc3)nc21`, the concentration at half-maximal activity (AC50) at Cytochrome P450 2C19 is 39.8 µM (inconclusive); on Cytochrome P450 3A4 it was 39.8 µM (inconclusive); at Cytochrome P450 2C9, 20 µM (inconclusive). With `O=C(CSc1cn(Cc2ccccc2)c2ccccc12)Nc1nccs1`, the results for the EC50 (in test [2]; in the test with H4) were 0.244 µM (active) and 5.48 µM (active), respectively. Turning to `O=C1CC[C@](CCc2nc3ccccc3[nH]2)(c2ccccc2)C(=O)N1`, on Cytochrome P450 2D6, the AC50 was 2.51 µM (inconclusive). For `COc1ccc(C(=O)N2CCC3(CCCN(Cc4ccncc4)C3)CC2)cc1`, the half-maximal activity concentration (AC50) on Cytochrome P450 2D6 is 12.6 µM (inconclusive). Consider `COc1ccc(NC(=O)C2(c3ccc(NC(=O)c4ccc(OC(C)=O)cc4)cc3)CCCC2)cc1`, for which, at Cytochrome P450 2C9, the concentration at half-maximal activity (AC50) was 1.26 µM (inconclusive).

On to `N#Cc1c(-c2ccc(F)cc2)cc(C2CC2)nc1SCC(=O)c1cccs1`, for which the EC50 in test [1] was > 53 µM (inactive). Take `CC(C)N1CCN(c2ccncc2S(=O)(=O)N2CCCCC2)CC1`: on Cytochrome P450 2D6, the AC50 is 3.98 µM (inconclusive). Consider `COc1ccc2[nH]c(/C(C#N)=C\c3ccc(Oc4ccc([N+](=O)[O-])cn4)cc3)nc2c1`, for which the half-maximal activity concentration (AC50) with INS1 is 3.64 µM (active). On to `COc1ccc(C(=O)C/C(=C\C(=O)c2ccc(C)cc2)c2ccccc2)cc1`, for which the AC50 in the test on INS1 was 7 µM (active). Further, the values for the EC50 in test [3] and in test [4] were 1.93 µM (active) and > 60 µM (not active), respectively. Regarding `CC(=O)N1CCC2(CC1)CCN(c1ccncc1)CC2`, the concentration at half-maximal activity (AC50) on Cytochrome P450 2C9 is 25.1 µM (inconclusive). Take `COc1cccc([C@H]2Oc3ccc(OC)cc3/C(=N\OC[C@@H](O)[C@@H]3O[C@@H]4OC(C)(C)O[C@@H]4[C@H]3O)[C@@H]2O)c1`: the AC50 at Cytochrome P450 2D6 was 3.16 µM (inconclusive). On to `COc1ccc(-c2cc(-c3c(O)c(OC)c4occc4c3OC)[nH]n2)cc1`, for which the EC50 in [5] is 25.8 µM (active). In the case of `CC(=O)Nc1ccc(C2=NN(CC#N)C(=O)SC2)cc1`, the figures for the concentration at half-maximal activity (AC50) at Cytochrome P450 1A2 and on Cytochrome P450 2C9 were 15.8 µM (inconclusive) and 8.91 µM (inconclusive), respectively. Regarding `CC(=O)c1ccc(NC(S)=NCCc2cccc(Cl)c2)cc1`, the figures for the EC50 (in test [2]; in the test with H4) were 2.64 µM (active) and > 120 µM (not active), respectively.

Regarding `CC(=O)Nc1ccc(Sc2ncccc2C(=O)Nc2ccc(F)cc2)cn1`, the AC50 is 39.8 µM (inconclusive) at Cytochrome P450 2C19, 15.8 µM (inconclusive) at Cytochrome P450 3A4 and 10 µM (inconclusive) on Cytochrome P450 2C9. Moreover, the EC50 in test [1] is 1.97 µM (active).

Take `COc1ccc(Oc2nnc(C)c3ccccc23)cc1`: the EC50 in [2] is 2.76 µM (active); with H4, 5.97 µM (active). As to `CCN(CC)CCOC(=O)c1c(C)n(C)c2ccc(OC)cc12`, the AC50 on Cytochrome P450 2C19 was 39.8 µM (inconclusive); at Cytochrome P450 2D6, 28.2 µM (inconclusive). As to `Cc1cccc(NC(=O)C2CCN(S(=O)(=O)c3cccc4nsnc34)CC2)n1`, the AC50 on Cytochrome P450 1A2 is 0.0794 µM (inconclusive); on Cytochrome P450 2D6 it was 14.1 µM (inconclusive); on Cytochrome P450 2C9, 14.1 µM (inconclusive).

As for `Cc1cccc(NC(=N)Nc2nc(C)cc(C)n2)c1`, in [1], the EC50 is 10.7 µM (active). With `Cc1cccc(CNc2nc(-c3cccc(NS(C)(=O)=O)c3)nc3ccccc23)c1`, on Cytochrome P450 2C9, the AC50 is 0.501 µM (inconclusive). For `CC1=NN(C(=O)c2ccncc2)C(=O)[C@@H]1/N=N\c1ccc2ccccc2c1`, the half-maximal activity concentration (AC50) on Cytochrome P450 2C19 is 3.98 µM (inconclusive); at Cytochrome P450 3A4, 3.98 µM (inconclusive); on Cytochrome P450 2D6, 3.16 µM (inconclusive). In the case of `Cc1ccc(Nc2nnc(-c3ccc4c(c3)OCO4)o2)c(C)c1`, the AC50 on Cytochrome P450 2C9 was 7.94 µM (inconclusive). Consider `Cn1c2c(c(=O)n(C)c1=O)C1(C(=O)Nc3ccccc31)C(C#N)=C(N)O2` (stereo not given), for which the AC50 is 25.1 µM (inconclusive) on Cytochrome P450 1A2, 22.4 µM (inconclusive) at Cytochrome P450 3A4 and 14.1 µM (inconclusive) at Cytochrome P450 2D6.

As for `FC(F)(F)c1ccccc1-c1nc(N2CCOCC2)c2ccccc2n1`, the half-maximal activity concentration (AC50) on Cytochrome P450 3A4 is 12.6 µM (inconclusive); on Cytochrome P450 2D6 it was 25.1 µM (inconclusive). As to `COc1ccc(N2CCN(C(S)=Nc3cccc(C)c3)CC2)cc1`, the AC50 was 2.24 µM (inconclusive) on Cytochrome P450 3A4 and 0.00562 µM (inconclusive) at Cytochrome P450 2C9.

For `O=C(CNS(=O)(=O)c1cccs1)N1CCC2(CC1)OCCO2`, at Cytochrome P450 2C9, the AC50 was 39.8 µM (inconclusive).

For `O=C(OCc1cccc(F)c1)c1ccc2c(c1)-c1ccccc1C2=O`, the results for the AC50 at Cytochrome P450 2D6 and on Cytochrome P450 2C9 were 0.355 µM (inconclusive) and 10 µM (inconclusive), respectively. Turning to `O=C(c1ccncc1)N1CCC2(CCN(Cc3ccncc3)CC2)CC1`, the AC50 is 15.8 µM (inconclusive) at Cytochrome P450 3A4, 25.1 µM (inconclusive) at Cytochrome P450 2D6 and 20 µM (inconclusive) at Cytochrome P450 2C9.

For the compound `CCC(=O)NCCNC(=O)c1c(SC)nsc1SC`, the AC50 on Cytochrome P450 2C19 is 39.8 µM (inconclusive); at Cytochrome P450 1A2, 3.16 µM (inconclusive); on Cytochrome P450 2C9, 12.6 µM (inconclusive). In the case of `Cc1ccnc(N(C(=O)Nc2ccccc2)C2=NCC(C)(C)S2)c1`, the EC50 is 0.709 µM (active) in test [2] and > 120 µM (not active) in the test with H4.

Consider `COC(=O)C1(CC(C)C)C=C2C(=C(C(C)C)C(=O)C2C)CN1` (stereo not given), for which the AC50 on Cytochrome P450 2C19 is 25.1 µM (inconclusive); on Cytochrome P450 1A2, 15.8 µM (inconclusive); on Cytochrome P450 3A4 it was 20 µM (inconclusive); at Cytochrome P450 2D6 it was 25.1 µM (inconclusive). With `O=C(NCc1ccccc1)C1=C[C@H](c2csc3ccccc23)C[C@H](OCCCCO)O1`, the AC50 with INS1 was 5.81 µM (active).

With `COc1ccc(O[C@H]2C=C[C@@H](c3ccccc3)O[C@H]2COC(=O)CC/C(C)=N\O[C@@H](C)CN2CCCc3nc(C)c(C)cc32)cc1`, at Cytochrome P450 2C9, the concentration at half-maximal activity (AC50) is 3.98 µM (inconclusive). On to `O=c1c(Oc2ccccc2Br)c(C(F)(F)F)oc2c(CN3CCCC3)c(O)ccc12`, for which the half-maximal activity concentration (AC50) on Cytochrome P450 2C19 was 39.8 µM (inconclusive); at Cytochrome P450 1A2 it was 17.8 µM (inconclusive); on Cytochrome P450 2D6 it was 17.8 µM (inconclusive). In the case of `COc1ccc([N+](=O)[O-])cc1NC1C2CC3CC(C2)CC1C3` (stereo not given), the AC50 at Cytochrome P450 3A4 is 11.2 µM (inconclusive); on Cytochrome P450 2C9, 22.4 µM (inconclusive). In the case of `Cc1ccc(S(=O)(=O)N/N=C/c2ccc(OC3CSC3)cc2)cc1`, the concentration at half-maximal activity (AC50) at Cytochrome P450 2C19 was 4.47 µM (inconclusive). Further, the EC50 in [1] is 5.51 µM (active). `O=C(O)c1ccc2c(c1)C(=O)N(C(Cc1ccc(O)cc1)C(=O)O)C2=O` (stereo not given): the AC50 at Cytochrome P450 2D6 is 0.01 µM (inconclusive).

The term AC50 denotes the midpoint of the concentration-response curve, whichever way the signal moves.
